Values of other authors, collected in US8865213B2, “Modified release pharmaceutical compositions” (USV Limited, priority 2009, dated 2014).

Solubility in ethanol (ethanol): soluble | Solubility in water (water): practically insoluble
Structure (SMILES): COC(=O)C1=C(C)NC(C)=C(C(=O)OCC(C)C)C1c1ccccc1[N+](=O)[O-] (centres unmarked) [Nisoldipine, 3,5-pyridinedicarboxylic acid, 1,4-dihydro-2,6-dimethyl-4-(2-nitrophenyl)-, methyl 2-methyl-propyl ester]
